In patent US10508109B2 (priority 2015, dated 2019):
Read-outs that look alike come from different tables or passages of the source.

Legend:
[1] = test system: HCT-116; experiment: Cell-based assay, anti-proliferative activity (Cell Counting Kit-8, 72 hours); conditions: Homo sapiens, read-out: IC50 (μM) HCT-116
Summary of the method: (§1)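 CCK-8 viability read 72 h after compound exposure over an 8-point series from 1.5625 to 100 micro-M plus zero. Seeding density 2,000–3,000 cells/well; IC50 from the dilution series.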

[2] = test system: HFL1; experiment: as above; conditions: Homo sapiens, read-out: IC50 (μM) HFL1
Summary of the method: as §1

[3] = test system: PC14; experiment: as above; conditions: Homo sapiens, read-out: IC50 (μM) PC14
Summary of the method: as §1

[4] = test system: CCD-18Co; experiment: as above; conditions: Homo sapiens, read-out: IC50 (μM) CCD-18Co
Summary of the method: as §1

[5] = target: SUV39H2 (Homo sapiens (Human), UniProt Q9H5I1); conditions: read-out: IC50 (μM) Suv 39H2 assay; enzyme assay
[6] = test system: A549; experiment: Cell-based assay, anti-proliferative activity (Cell Counting Kit-8, 72 hours); conditions: Homo sapiens, read-out: IC50 (μM) A549
Summary of the method: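 Growth read-out after inhibitor treatment of plated cells; potency expressed as IC50.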

[7] = HCT-116 cells, Cell Counting Kit-8, 72 hours
[8] = HFL1 cells, Cell Counting Kit-8, 72 hours
[9] = PC-14, PC14 cells, Cell Counting Kit-8, 72 hours
[10] = CCD-18Co cells, Cell Counting Kit-8, 72 hours
[11] = A549 cells, Cell Counting Kit-8, 72 hours
[12] = HCT-116 cells, 72 hours, Cell Counting Kit-8
[13] = HFL1 cells, 72 hours, Cell Counting Kit-8
[14] = PC-14, PC14 cells, 72 hours, Cell Counting Kit-8
[15] = CCD-18Co cells, 72 hours, Cell Counting Kit-8
[16] = A549 cells, 72 hours, Cell Counting Kit-8

Sequence of SUV39H2 (Q9H5I1 whole entry): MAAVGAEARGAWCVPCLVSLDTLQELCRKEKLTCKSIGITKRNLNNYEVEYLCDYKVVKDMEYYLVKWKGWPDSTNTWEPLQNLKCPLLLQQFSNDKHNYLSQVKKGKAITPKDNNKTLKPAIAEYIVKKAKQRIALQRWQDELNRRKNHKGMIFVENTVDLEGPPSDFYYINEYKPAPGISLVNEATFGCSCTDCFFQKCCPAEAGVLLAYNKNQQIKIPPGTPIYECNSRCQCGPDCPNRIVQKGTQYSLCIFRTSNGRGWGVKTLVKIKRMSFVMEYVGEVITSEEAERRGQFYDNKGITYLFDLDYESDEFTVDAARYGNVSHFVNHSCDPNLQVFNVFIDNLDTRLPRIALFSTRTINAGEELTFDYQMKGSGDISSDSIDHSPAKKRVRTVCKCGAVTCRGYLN

SMILES | IC50 [1, 7] | IC50 [2, 8] | IC50 [3, 9] | IC50 [4, 10] | IC50 [5] | IC50 [6, 11] | IC50 [1, 12] | IC50 [2, 13] | IC50 [3, 14] | IC50 [4, 15] | IC50 [6, 16] | IC50 ([1]; HCT-116, 72 h) | IC50 ([2]; HFL1, 72 h) | IC50 ([3]; PC-14, 72 h) | IC50 ([4]; CCD-18Co, 72 h) | IC50 ([6]; A549, 72 h)
COc1cc(OC)c(-c2cn3ccc(N4CCCN(S(C)(=O)=O)CC4)cc3n2)cc1Cl [Example 201, 2-(5-chloro-2,4-dimethoxyphenyl)-7-[4-(methylsulfonyl)-1,4-diazepan-1-yl]imidazo[1,2-a]pyridine] | 2.7 µM | 3 µM | 1.9 µM | 3.2 µM | 0.0064 µM | 2.2 µM | – | – | – | – | – | – | – | – | – | –
COc1cc(OC)c(-c2cn3ccc(N4CCC(NS(=O)(=O)C5CC5)C4)cc3n2)cc1Cl (stereo not drawn) [Example 63, N-(1-(2-(5-chloro-2,4-dimethoxyphenyl)imidazo[1,2-a]pyridine-7-yl)pyrrolidin-3-yl)cyclopropanesulfonamide] | 1.6 µM | 1.7 µM | 2.1 µM | 3.8 µM | 0.00395 µM | 3 µM | – | – | – | – | – | – | – | – | – | –
COc1cc(OCCCN(C)C)c(-c2cn3ccc(N4CCN(C(=O)OC(C)(C)C)CC4)cc3n2)cc1Cl [Example 127, tert-butyl 4-(2-{5-chloro-2-[3-(dimethylamino)propoxy]-4-methoxyphenyl}imidazo[1,2-a]pyridin-7-yl)piperazine-1-carboxylate] | 1.2 µM | 0.5 µM | 1.6 µM | 0.83 µM | 0.0995 µM | 1.6 µM | – | – | – | – | – | – | – | – | – | –
COc1cc(OC)c(-c2cn3ccc(N4CCN(S(=O)(=O)Cc5ccccc5)CC4)cc3n2)cc1Cl [Example 179, 7-[4-(benzylsulfonyl)piperazin-1-yl]-2-(5-chloro-2,4-dimethoxyphenyl)-imidazo[1,2-a]pyridine] | 1.6 µM | 1.8 µM | 1.6 µM | 1.8 µM | 0.0322 µM | 2.1 µM | – | – | – | – | – | – | – | – | – | –
COc1cc(OC)c(-c2cn3ccc(N4CCN(S(=O)(=O)C(C)C)CC4)cc3n2)cc1Cl [Example 178, 2-(5-chloro-2,4-dimethoxyphenyl)-7-[4-(isopropylsulfonyl)piperazin-1-yl]imidazo[1,2-a]pyridine] | 1.5 µM | 1.7 µM | 0.74 µM | 2.1 µM | 0.0143 µM | 1 µM | – | – | – | – | – | – | – | – | – | –
COc1cc(OC)c(-c2cn3ccc(N4CCN(CCN5CCCC5)CC4)cc3n2)cc1Cl [Example 143, 2-(5-chloro-2,4-dimethoxyphenyl)-7-(4-(2-(pyrrolidin-1-yl)ethyl)piperazin-1-yl)imidazo[1,2-a]pyridine] | 8.1 µM | 8.5 µM | 4.4 µM | 2.7 µM | 0.0044 µM | 4 µM | – | – | – | – | – | – | – | – | – | –
COc1cc(OC)c(-c2cn3ccc(-c4ccc(C(=O)NCC5CCCNC5)cc4)cc3n2)cc1Cl (stereo not drawn) [Example 251, 4-(2-(5-chloro-2,4-dimethoxyphenyl)imidazo[1,2-a]pyridin-7-yl)-N-(piperidin-3-ylmethyl)benzamide] | – | – | – | – | 0.0308 µM | – | 5.8 µM | 8.3 µM | 5.4 µM | 10 µM | 9.7 µM | – | – | – | – | –
COC(=O)CCCN1CCN(c2ccn3cc(-c4cc(Cl)c(OC)cc4OC)nc3c2)CC1 [Example 237, methyl 4-(4-(2-(5-chloro-2,4-dimethoxyphenyl)imidazo[1,2-a]pyridine-7-yl)piperazin-1-yl)butanoate] | – | – | – | – | 0.0113 µM | – | 10 µM | 10 µM | 10 µM | 10 µM | 10 µM | – | – | – | – | –
COc1cc(OC)c(-c2cn3ccc(N4CCC(NS(=O)(=O)CC(C)C)CC4)cc3n2)cc1Cl [Example 185, N-{1-[2-(5-Chloro-2,4-dimethoxyphenyl)imidazo[1,2-a]pyridin-7-yl]piperidin-4-yl}-2-methylpropane-1-sulfonamide] | 1.1 µM | 2 µM | 1.4 µM | 1.9 µM | 0.0127 µM | 1.6 µM | – | – | – | – | – | – | – | – | – | –
COc1cc(OC)c(-c2cn3ccc(N4CCN(S(=O)(=O)C(C)C)CC4)nc3n2)cc1Cl [Example 205, 2-(5-chloro-2,4-dimethoxyphenyl)-7-[4-(isopropylsulfonyl)piperazin-1-yl]imidazo[1,2-a]pyrimidine] | 1.9 µM | 2 µM | 0.62 µM | 3.1 µM | 0.0291 µM | 1.2 µM | – | – | – | – | – | – | – | – | – | –
COc1cc(OC)c(-c2cn3ccc(N4CCN(P(=O)(OC)OC)CC4)nc3n2)cc1Cl [Example 218, dimethyl (4-(2-(5-chloro-2,4-dimethoxyphenyl)imidazo[1,2-a]pyrimidin-7-yl)piperazin-1-yl)phosphonate] | – | – | – | – | 0.0111 µM | – | – | – | – | – | – | 5.6 µM | 10 µM | 3.4 µM | 10 µM | 6.5 µM
COc1cc(OC)c(-c2cn3ccc(N4CCN(C(=O)OC(C)(C)C)CC4)nc3n2)cc1Cl [Example 145, tert-butyl 4-[2-(5-chloro-2,4-dimethoxyphenyl)imidazo[1,2-a]pyrimidin-7-yl]piperazine-1-carboxylate] | 3.1 µM | 2.8 µM | 1.5 µM | 2.8 µM | 0.0738 µM | 1.9 µM | – | – | – | – | – | – | – | – | – | –
COc1cc(OCCCN(C)C)c(-c2cn3ccc(N4CCCN(S(=O)(=O)N(C)C)CC4)cc3n2)cc1Cl [Example 216, 4-(2-{5-chloro-2-[3-(dimethylamino)propoxy]-4-methoxyphenyl}-imidazo[1,2-a]pyridin-7-yl)-N,N-dimethyl-1,4-diazepane-1-sulfonamide] | – | – | – | – | 0.0194 µM | – | 3.3 µM | 1.5 µM | 1.6 µM | 2.7 µM | 1.9 µM | – | – | – | – | –
COc1cc(OC)c(-c2cn3ccc(N4CCN(c5ncccc5C#N)CC4)cc3n2)cc1Cl [Example 283, 2-(4-(2-(5-chloro-2,4-dimethoxyphenyl)imidazo[1,2-a]pyridin-7-yl)-piperazin-1-yl)nicotinonitrile] | – | – | – | – | 0.0141 µM | – | 0.42 µM | 0.69 µM | 0.68 µM | 0.45 µM | 0.66 µM | – | – | – | – | –
COc1cc(OC)c(-c2cn3ccc(N4CCC(NS(=O)(=O)N(C)C)CC4)cc3n2)cc1Cl [Example 181, N-{1-[2-(5-Chloro-2,4-dimethoxyphenyl)imidazo[1,2-a]pyridin-7-yl]piperidin-4-yl}N,N-dimethylsulfonamide] | 1.6 µM | 0.35 µM | 1.5 µM | 0.38 µM | 0.0139 µM | 0.76 µM | – | – | – | – | – | – | – | – | – | –
COc1cc(OC)c(-c2cn3ccc(N4CCN(CCN5CCOCC5)CC4)cc3n2)cc1Br [Example 131, 4-(2-(4-(2-(5-bromo-2,4-dimethoxyphenyl)imidazo[1,2-a]pyridin-7-yl)-piperazin-1-yl)ethyl)morpholine] | 8.4 µM | 7.3 µM | 6.8 µM | 8.3 µM | 0.00349 µM | 8.3 µM | – | – | – | – | – | – | – | – | – | –
COc1cc(OC)c(-c2cn3ccc(N4CC[C@H](NCc5ccc(C)cc5)C4)cc3n2)cc1Cl [Example 305, (S)-1-(2-(5-chloro-2,4-dimethoxyphenyl)imidazo[1,2-a]pyridin-7-yl)-N-(4-methylbenzyl)pyrrolidin-3-amine] | – | – | – | – | 0.0117 µM | – | 0.59 µM | 0.67 µM | 0.99 µM | 0.82 µM | 1.1 µM | – | – | – | – | –
COc1cc(OC)c(-c2cn3ccc(N[C@H]4CC[C@H](NCc5ccccc5)CC4)cc3n2)cc1Cl [Example 291, N^1-benzyl-N^4-(2-(5-chloro-2,4-dimethoxyphenyl)imidazo[1,2-a]pyridin-7-yl)-trans-cyclohexane-1,4-diamine] | – | – | – | – | 0.041 µM | – | 0.67 µM | 0.93 µM | 0.71 µM | 0.76 µM | 0.72 µM | – | – | – | – | –
COc1cc(OC)c(-c2cn3ccc(N4CCN(P(=O)(OC)OC)CC4)cc3n2)cc1Cl [Example 203, dimethyl {4-[2-(5-chloro-2,4-dimethoxyphenyl)imidazo[1,2-a]pyridin-7-yl]piperazin-1-yl}phosphonate] | – | – | – | – | 0.00177 µM | – | – | – | – | – | – | 5.1 µM | 4 µM | 1.8 µM | 6 µM | 3.9 µM
CCCS(=O)(=O)N1CCN(c2ccn3cc(-c4cc(Cl)c(OC)cc4OC)nc3c2)CC1 [Example 170, 2-(5-chloro-2,4-dimethoxyphenyl)-7-[4-(propylsulfonyl)piperazin-1-yl]imidazo[1,2-a]pyridine] | 2.1 µM | 1.9 µM | 1.6 µM | 2.6 µM | 0.0219 µM | 1.7 µM | – | – | – | – | – | – | – | – | – | –
